Data taken from US10072014B2 (Janssen Pharmaceutica NV, priority 2014, dated 2018).

Experiments:
human mGlu2 receptor = molecular target: T1, human mGlu2 receptor (Homo sapiens, UniProt Q14416); assay: [35S]GTPγS binding assay, negative allosteric modulation of mGluR2; type: biochemical
T1 construct: expressed in transfected cells; host or cells: CHO cells
Text: The compounds provided in the present invention are negative allosteric modulators of mGluR2. These compounds appear to inhibit glutamate responses by binding to an allosteric site other than the glutamate binding site. The response of mGluR2 to a concentration of glutamate is decreased when compounds of Formula (I) are present. Compounds of Formula (I) are expected to have their effect substantially at mGluR2 by virtue of their ability to reduce the function of the receptor. The effects of negative allosteric modulators tested at mGluR2 using the [^35S]GTPγS binding assay method described below and which is suitable for the identification of such compounds, and more particularly the compounds according to Formula (I), are shown in Table 7.
1) [^35S]GTPγS Binding Assay
The [^35S]GTPγS binding assay is a functional membrane-based assay used to study G-protein coupled receptor (GPCR) function whereby incorporation of a non-hydrolysable form of GTP, [^35S]GTPγS (guanosine 5′-triphosphate, labelled with […] ^35S), is measured. The G-protein a subunit catalyzes the exchange of guanosine 5′-diphosphate (GDP) by guanosine triphosphate (GTP) and on activation of the GPCR by an agonist, [^35S]GTPγS, becomes incorporated and cannot be cleaved to continue the exchange cycle (Harper (1998) Current Protocols in Pharmacology 2.6.1-10, John Wiley & Sons, Inc.). […] Here we describe the use of the [^35S]GTPγS binding assay using membranes from cells transfected with the human mGlu2 receptor and adapted from Schaffhauser et al. (Molecular Pharmacology, 2003, […]) for the detection of the negative allosteric modulation (NAM) properties of the compounds of this invention.
CHO-cells were cultured to pre-confluence and stimulated with 5 mM butyrate for 24 h. Cells were then collected by scraping in PBS and cell suspension was centrifuged (10 min at 4000 RPM in benchtop centrifuge). Supernatant was discarded and pellet gently resuspended in 50 mM Tris-HCl, pH 7.4 by mixing with an Ultra Turrax homogenizer. The suspension was centrifuged at 12,400 RPM (Sorvall F14S-6x250Y) for 10 minutes and the supernatant discarded. The pellet was homogenized in 5 mM Tris-HCl, pH 7.4 using an Ultra Turrax homogenizer and centrifuged again (13,000 RPM, 20 min, 4° C.). The final pellet was resuspended in 50 mM Tris-HCl, pH 7.4 and stored at −80° C. in appropriate aliquots before use. Protein concentration was determined by the Bradford method (Bio-Rad, USA) with bovine serum albumin as standard.
[^35S]GTPγS Binding Assay
Measurement of mGluR2 negative allosteric modulatory activity of test compounds was performed as follows. Test compounds and glutamate were diluted in assay buffer containing 10 mM HEPES acid, 10 mM HEPES salt, pH 7.4, 100 mM NaCl, 3 mM MgCl2 and 10 μM GDP. Human mGlu2 receptor-containing membranes were thawed on ice and diluted in assay buffer supplemented with 18 μg/ml saponin. Membranes were pre-incubated with compound together with a predefined (˜EC80) concentration of glutamate (60 μM) for 30 min at 30° C. After addition of [^35S]GTPγS (f.c. 0.1 nM), assay mixtures were shaken briefly and further incubated to allow [^35S]GTPγS incorporation on activation (30 minutes, 30° C.). Final assay mixtures contained 7 μg of membrane protein in 10 mM HEPES acid, 10 mM HEPES salt, pH 7.4, 100 mM NaCl, 3 mM MgCl2, 10 μM GDP and 10 μg/ml saponin. Total reaction volume was 200 μl. Reactions were terminated by rapid filtration through Unifilter-96 GF/B plates (Perkin Elmer, Massachusetts, USA) using a 96-well filtermate universal harvester. Filters were washed 6 times with ice-cold 10 mM NaH2PO4/10 mM Na2HPO4, pH 7.4. Filters were then air-dried, and 30 μl of liquid scintillation cocktail (Microscint-O) was added to each well. Membrane-bound radioactivity was counted in a Topcount.
The concentration-response curves of representative compounds of the present invention were generated using the Lexis software interface (developed at J&J). […]

Wiga Wistar rats = assay: Reversal of LY-404039-induced decrease of palpebral opening in apomorphine-challenged rats; type: in vivo; settings: Rattus norvegicus, PO, criterion: cumulative palpebral opening score >26, read-out: ED50 APO LY-404039
Method: B) In Vivo Pharmacology 1) Reversal of LY-404039-induced Decrease of Palpebral Opening in Apomorphine-challenged Rats.
Male Wiga Wistar rats (Crl:WI; Charles River Germany; 220±40 g) were housed under standard laboratory conditions (21±2° C.; 50-65% relative humidity; light-dark cycle set at 12 h; lights on at 6.00 h) and fasted overnight prior to the start of the experiments (tap water remained available ad libitum). During the test period, they were housed in individual cages. Palpebral opening was scored every 5 min over the first hour after injection of apomorphine (1.0 mg/kg, i.v.) in animals either pretreated or not pretreated with LY-404039 (2.5 mg/kg, s.c.) at 1 h prior to the apomorphine injection. The animals were also pretreated with test compound or solvent at a predefined interval before apomorphine challenge. The score system was: (5) exophthalmos, (4) wide open, (3) open for three-quarters, (2) half open, (1) open for one-quarter, (0) closed. The scores for palpebral opening were cumulated over the 60-min observation period. A cumulative palpebral opening score>26 was selected for drug-induced reversal of the LY-404039-induced decrease of palpebral opening (occurrence in 3.2% of control animals pretreated with LY-404039 (n=154) versus in 99.5% of control rats not pretreated with LY-404039 (n=6335)). […]

Induction of mydriasis = settings: Wiga, rat, in vivo, PO, rats
Method: 3) Induction of Mydriasis
The pupil diameter of Wiga rats was measured with a microscopic micrometer (1 unit= 1/24 mm). Criteria for drug-induced effects: pupil diameter>25 units for mydriasis (in controls: 1.9%) 1 h post-administration of the test compound (test 1) or 1, 2 or 3 h post-administration of the test compound (test 2, wherein the maximum pupil diameter over the full 3 h period is reported).

T1 sequence (Q14416 19-872): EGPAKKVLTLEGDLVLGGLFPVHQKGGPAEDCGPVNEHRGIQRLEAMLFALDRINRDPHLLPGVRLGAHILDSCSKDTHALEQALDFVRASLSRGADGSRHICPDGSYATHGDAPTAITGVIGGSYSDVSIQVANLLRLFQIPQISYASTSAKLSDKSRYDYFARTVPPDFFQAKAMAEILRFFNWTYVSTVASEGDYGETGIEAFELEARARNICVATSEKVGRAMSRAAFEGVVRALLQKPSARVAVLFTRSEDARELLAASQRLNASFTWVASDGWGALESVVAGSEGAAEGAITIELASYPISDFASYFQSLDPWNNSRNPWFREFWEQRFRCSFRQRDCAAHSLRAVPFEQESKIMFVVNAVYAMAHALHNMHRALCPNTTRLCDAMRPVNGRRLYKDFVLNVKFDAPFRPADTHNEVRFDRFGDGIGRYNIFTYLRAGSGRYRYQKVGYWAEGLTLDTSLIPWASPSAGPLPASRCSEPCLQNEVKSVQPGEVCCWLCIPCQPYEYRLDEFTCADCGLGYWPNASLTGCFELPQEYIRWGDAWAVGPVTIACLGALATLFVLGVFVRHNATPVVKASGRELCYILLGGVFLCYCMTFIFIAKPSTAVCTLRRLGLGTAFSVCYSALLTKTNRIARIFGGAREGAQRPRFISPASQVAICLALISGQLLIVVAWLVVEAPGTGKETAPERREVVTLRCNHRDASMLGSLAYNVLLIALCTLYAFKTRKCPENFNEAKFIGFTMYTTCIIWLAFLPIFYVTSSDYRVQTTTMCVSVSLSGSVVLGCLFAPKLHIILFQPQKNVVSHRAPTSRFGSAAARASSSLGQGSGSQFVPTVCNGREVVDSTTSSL

## Cc1ncc(-c2cnn3c2C(=O)N(c2ccc(C(F)(F)F)c(Cl)c2)C[C@@H]3C)[nH]1 [Compound 27]
Human mGlu2 receptor; maximal % inhibition relative to the control glutamate response (EC80 glutamate), read-out: GTPγS-hmGluR2 anGT Emax
  Emax: 106%
Human mGlu2 receptor; membranes from CHO cells transfected with human mGlu2 receptor, glutamate 60 μM (~EC80), read-out: GTPγS-hmGluR2 anGT pIC50 (converted)
  IC50: 3.47 nM
other
  melting point: 188.27 °C
Wiga Wistar rats
  ED50: 0.2 mg/kg
Induction of mydriasis; maximum pupil diameter >25 units over 1, 2 or 3 h post-administration, read-out: ED50 MYD Test 2
  ED50: > 40 mg/kg
Induction of mydriasis; pupil diameter >25 units 1 h post-administration, read-out: ED50 MYD Test 1
  ED50 at 1 h: > 10 mg/kg
